Measurements taken from ChEMBL document CHEMBL4622952, “Synthesis and biological evaluation of Schizandrin derivatives as tubulin polymerization inhibitors” (Bioorg Med Chem Lett, 2020).
Activity calls are given as the source filed them. No cut-off for these calls is given here.

Legend:
[1] = Induction of apoptosis in human RKOP3 cells assessed as live cells at 3.3 uM measured after 48 hrs by annexinV-FITC/propidium iodide staining based flow cytometry analysis (reference value: 98.19 %); assay type: functional
Tubulin (Homo sapiens) [2] = target: T1, Tubulin (Homo sapiens) (UniProt P68371+Q9H4B7+P0DPH7+P68366+Q13509+Q71U36+P04350+Q3ZCM7+P07437+P68363+Q9BQE3+Q6PEY2+Q13885+Q9BVA1+Q9BUF5); test: Inhibition of tubulin […] in human DU145 cells assessed as increase in soluble fraction of tubulin at […] measured after 24 hrs by Western blot analysis; assay type: cell-based; details: DU-145
HEK293 = test: Cytotoxicity against human HEK293 cells assessed as reduction in cell viability measured after 48 hrs by MTT assay; assay type: cell-based; details: Homo sapiens, HEK293, 48 h; read-out: IC50
[3] = Induction of apoptosis in human RKOP3 cells assessed as live cells at 5 uM measured after 48 hrs by annexinV-FITC/propidium iodide staining based flow cytometry analysis (reference value: 98.19 %); assay type: functional
DU-145 = test: Antiproliferative activity against human DU145 cells assessed as reduction in cell viability measured after 48 hrs by MTT assay; assay type: functional, cell-based
HeLa = test: Antiproliferative activity against human HeLa cells assessed as reduction in cell viability measured after 48 hrs by MTT assay; assay type: functional, cell-based
[4] = Induction of apoptosis in human RKOP3 cells assessed as necrotic cells at 1.5 uM measured after 48 hrs by annexinV-FITC/propidium iodide staining based flow cytometry analysis (reference value: 0 %); assay type: functional
[5] = Induction of apoptosis in human RKOP3 cells assessed as late apoptotic cells at 1.5 uM measured after 48 hrs by annexinV-FITC/propidium iodide staining based flow cytometry analysis (reference value: 0.01 %); assay type: functional
[6] = Induction of apoptosis in human RKOP3 cells assessed as live cells at 1.5 uM measured after 48 hrs by annexinV-FITC/propidium iodide staining based flow cytometry analysis (reference value: 98.19 %); assay type: functional
[7] = Cell cycle arrest in human RKOP3 cells assessed as accumulation at G0/G1 phase at 3.3 uM measured after 24 hrs by propidium iodide staining based flow cytometry analysis (reference value: 59.59 %); assay type: functional
[8] = Cell cycle arrest in human RKOP3 cells assessed as accumulation at G0/G1 phase at 1.5 uM measured after 24 hrs by propidium iodide staining based flow cytometry analysis (reference value: 59.59 %); assay type: functional
Tubulin (Homo sapiens) [9] = target: T1, Tubulin (Homo sapiens); test: Inhibition of tubulin polymerization in human HeLa cells assessed as disruption of microtubule network at 10 uM measured after 24 hrs by immunofluorescence assay; assay type: cell-based
[10] = Induction of apoptosis in human RKOP3 cells assessed as early apoptotic cells at 3.3 uM measured after 48 hrs by annexinV-FITC/propidium iodide staining based flow cytometry analysis (reference value: 1.8 %); assay type: functional
[11] = Induction of apoptosis in human RKOP3 cells assessed as late apoptotic cells at 3.3 uM measured after 48 hrs by annexinV-FITC/propidium iodide staining based flow cytometry analysis (reference value: 0.01 %); assay type: functional
[12] = Induction of apoptosis in human RKOP3 cells assessed as early apoptotic cells at 1.5 uM measured after 48 hrs by annexinV-FITC/propidium iodide staining based flow cytometry analysis (reference value: 1.8 %); assay type: functional
Homo sapiens = organism: Homo sapiens; test: (§1) Antiproliferative activity against human RKOP3 cells assessed as reduction in cell viability measured after 48 hrs by MTT assay; assay type: functional, cell-based
[13] = as §1; assay type: functional, cell-based
[14] = Induction of apoptosis in human RKOP3 cells assessed as necrotic cells at 5 uM measured after 48 hrs by annexinV-FITC/propidium iodide staining based flow cytometry analysis (reference value: 0 %); assay type: functional
[15] = Cell cycle arrest in human RKOP3 cells assessed as accumulation at G0/G1 phase at 5 uM measured after 24 hrs by propidium iodide staining based flow cytometry analysis (reference value: 59.59 %); assay type: functional
[16] = Induction of apoptosis in human RKOP3 cells assessed as necrotic cells at 3.3 uM measured after 48 hrs by annexinV-FITC/propidium iodide staining based flow cytometry analysis (reference value: 0 %); assay type: functional
[17] = Induction of apoptosis in human RKOP3 cells assessed as late apoptotic cells at 5 uM measured after 48 hrs by annexinV-FITC/propidium iodide staining based flow cytometry analysis (reference value: 0.01 %); assay type: functional
A549 = test: Antiproliferative activity against human A549 cells assessed as reduction in cell viability measured after 48 hrs by MTT assay; assay type: functional, cell-based
[18] = Induction of apoptosis in human RKOP3 cells assessed as early apoptotic cells at 5 uM measured after 48 hrs by annexinV-FITC/propidium iodide staining based flow cytometry analysis (reference value: 1.8 %); assay type: functional

For CCCCCCCCCC(=O)O/N=C1\C=C2C[C@H](C)[C@@]3(C)Cc4cc(OC)c(OC)c(OC)c4C23C(OC)=C1OC (stereo partly specified), the Activity [1] was 90.64%, the inhibition (Tubulin (Homo sapiens) [2]) was “Active” and the IC50 (HEK293) was 84.5 µM. For the same compound, the Activity [3] was 76.06%, the inhibition (DU-145) was “Dose-dependent effect” and the IC50 (DU-145; DU-145, 48 h) was 10.5 µM. For the same compound, the IC50 (HeLa) was 60.2 µM, the inhibition (HeLa) was “Dose-dependent effect” and the Activity [4] was 0%. The Activity [5] was 0.57%, the Activity [6] was 92.41% and the Activity [7] was 55.32%. For the same compound, the Activity [8] was 60.68%, the inhibition (Tubulin (Homo sapiens) [9]) was “Active” and the Activity [10] was 9.05%. The Activity [11] was 0.29%, the Activity [12] was 7.02% and the inhibition (Homo sapiens) was “Dose-dependent effect”. The IC50 [13] was 3.35 µM, the Activity [14] was 0.04% and the Activity [15] was 50.56%. The Activity [16] was 0.02%, the Activity [17] was 2.3% and the inhibition (A549) was “Dose-dependent effect”. The IC50 (A549; A549, 48 h) was 12.3 µM and the Activity [18] was 21.6%.
